Measured values taken from US20090005369A1, “Oxazolidinone Compounds and Compositions and Methods Related Thereto” (priority 2004, published 2009).
≈ marks a conversion by molar mass, not a printed value.

What was measured:
[1] = test system: S. pneumoniae ATCC 49619 PR 215; assay: MIC by standard microdilution (NCCLS M7-A5); format: cell-based; details: Streptococcus pneumoniae, ATCC49619, read-out: In vitro activities against bacteria, MIC
[2] = test system: E. faecalis ATCC 29212 53; assay: MIC by standard microdilution (NCCLS M7-A5); format: cell-based; details: Enterococcus faecalis, ATCC29212, read-out: In vitro activities against bacteria, MIC
[3] = test system: S. aureus ATCC 25923 MS 319; assay: MIC by standard microdilution (NCCLS M7-A5); format: cell-based; details: Staphylococcus aureus, ATCC25923, read-out: In vitro activities against bacteria, MIC
human MAO-A = biological target: T1, human MAO-A (Homo sapiens, UniProt P21397); assay: In vitro MAO-A enzymatic activity (kynuramine substrate, fluorescence); format: biochemical; details: membranes from SF9 cells, kynuramine 30 μM, read-out: Inhibitory activity of human MAO, Ki
T1 construct: purchased Gentest, BD, USA; host or cells: SF9 insect cells (membranes)
T1 sequence (P21397 1-527): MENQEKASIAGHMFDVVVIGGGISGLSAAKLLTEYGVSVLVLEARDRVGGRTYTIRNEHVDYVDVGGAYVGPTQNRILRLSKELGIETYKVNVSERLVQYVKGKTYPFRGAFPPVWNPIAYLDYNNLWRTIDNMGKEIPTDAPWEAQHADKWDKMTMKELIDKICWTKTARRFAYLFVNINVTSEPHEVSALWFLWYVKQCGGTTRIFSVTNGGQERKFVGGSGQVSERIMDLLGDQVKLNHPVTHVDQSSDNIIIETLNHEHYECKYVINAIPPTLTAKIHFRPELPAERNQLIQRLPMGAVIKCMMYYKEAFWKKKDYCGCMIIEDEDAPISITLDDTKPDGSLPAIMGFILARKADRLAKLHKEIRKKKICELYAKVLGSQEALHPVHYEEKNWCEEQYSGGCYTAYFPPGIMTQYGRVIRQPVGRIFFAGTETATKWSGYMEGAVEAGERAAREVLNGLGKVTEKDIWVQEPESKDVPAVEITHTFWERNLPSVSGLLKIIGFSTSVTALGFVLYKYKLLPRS

[4] = test system: E. faecalis ATCC 51575 MDR 311; assay: MIC by standard microdilution (NCCLS M7-A5); format: cell-based; details: Enterococcus faecalis, ATCC51575, read-out: In vitro activities against bacteria, MIC
human MAO-B = biological target: T2, human MAO-B (Homo sapiens, UniProt P27338); assay: In vitro MAO-B enzymatic activity (kynuramine substrate, fluorescence); format: biochemical; details: membranes from SF9 cells, kynuramine 30 μM, read-out: Inhibitory activity of human MAO, Ki
T2 construct: purchased Gentest, BD, USA; host or cells: SF9 insect cells (membranes)
T2 sequence (P27338 1-520): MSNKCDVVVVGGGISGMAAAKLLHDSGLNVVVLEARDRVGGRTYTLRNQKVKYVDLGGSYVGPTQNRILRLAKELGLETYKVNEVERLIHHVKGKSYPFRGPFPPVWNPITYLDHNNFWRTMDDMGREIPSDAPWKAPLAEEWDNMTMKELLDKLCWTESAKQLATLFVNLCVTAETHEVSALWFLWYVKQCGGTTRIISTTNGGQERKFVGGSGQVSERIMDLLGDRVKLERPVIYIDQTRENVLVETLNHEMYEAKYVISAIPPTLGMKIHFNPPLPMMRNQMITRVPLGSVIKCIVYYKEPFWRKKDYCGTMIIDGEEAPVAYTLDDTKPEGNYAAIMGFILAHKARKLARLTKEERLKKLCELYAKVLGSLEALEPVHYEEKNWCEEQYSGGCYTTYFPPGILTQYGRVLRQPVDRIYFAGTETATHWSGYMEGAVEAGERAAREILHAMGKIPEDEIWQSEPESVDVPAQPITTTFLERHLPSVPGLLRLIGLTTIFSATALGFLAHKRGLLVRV

[5] = test system: Moraxella catarrhalis HCl-78 259/339; assay: MIC by standard microdilution (NCCLS M7-A5); format: cell-based; details: HCL78259/339, read-out: In vitro activities against bacteria, MIC
[6] = test system: S. aureus ATCC 43300 MR 214; assay: MIC by standard microdilution (NCCLS M7-A5); format: cell-based; details: Staphylococcus aureus, ATCC43300, read-out: In vitro activities against bacteria, MIC
[7] = test system: E. faecium ATCC 51559 MDR 312; assay: MIC by standard microdilution (NCCLS M7-A5); format: cell-based; details: Enterococcus faecium, ATCC51559, read-out: In vitro activities against bacteria, MIC
[8] = test system: S. epidermidis ATCC 12228 MR 11; assay: microbe, parasite or virus in culture; format: cell-based; details: Staphylococcus epidermidis, ATCC12228, read-out: In vitro activities against bacteria, MIC
[9] = test system: Moxarella, Pasteurella and Bacteroides spp.; details: background statement; cited from earlier work

O=C1O[C@@H](CNC(=S)c2ccco2)CN1c1ccc(N2CCOCC2)c(F)c1 [Example 2, N-[[(5S)-3-[3-fluoro-4-(4-morpholinyl)-phenyl]-2-oxo-5-oxazolidinyl]methyl]furan-2-yl-thioamide]
MIC [1]: 2 µg/mL (≈ 4.93 µM)
MIC [2]: 2 µg/mL (≈ 4.93 µM)
MIC [3]: 8 µg/mL (≈ 19.7 µM)
Ki (human MAO-A): 170 µM
MIC [4]: 2 µg/mL (≈ 4.93 µM)
Ki (human MAO-B): 5.3 µM
MIC [5]: 2 µg/mL (≈ 4.93 µM)
MIC [6]: 2 µg/mL (≈ 4.93 µM)
MIC [7]: 1 µg/mL (≈ 2.47 µM)

O=C1O[C@@H](CNC(=S)c2ccoc2)CN1c1ccc(N2CCOCC2)c(F)c1 [Example 4, N-[[(5S)-3-[3-fluoro-4-(4-morpholinyl)-phenyl]-2-oxo-5-oxazolidinyl]methyl]furan-3-yl-thioamide]
MIC [1]: 1 µg/mL (≈ 2.47 µM)
MIC [2]: 1 µg/mL (≈ 2.47 µM)
MIC [3]: 1 µg/mL (≈ 2.47 µM)
Ki (human MAO-A): ≥ 250 µM
MIC [8]: 1 µg/mL (≈ 2.47 µM)
MIC [4]: 1 µg/mL (≈ 2.47 µM)
Ki (human MAO-B): 2.4 µM
MIC [5]: 1 µg/mL (≈ 2.47 µM)
MIC [6]: 1 µg/mL (≈ 2.47 µM)
MIC [7]: 2 µg/mL (≈ 4.93 µM)

CC(=S)N1CCN(c2ccc(N3C[C@H](CNC(=S)c4ccoc4)OC3=O)cc2F)CC1 [Example 7, N-[[(5S)-3-[3-fluoro-4-(4′-thioacetyl-4-piperazinyl)-phenyl]-2-oxo-5-oxazolidinyl]methyl]furan-3-yl-thioamide]
MIC [1]: 0.5 µg/mL (≈ 1.08 µM)
MIC [2]: 0.13 µg/mL (≈ 0.281 µM)
MIC [3]: 0.5 µg/mL (≈ 1.08 µM)
Ki (human MAO-A): ≥ 200 µM
MIC [8]: 0.5 µg/mL (≈ 1.08 µM)
MIC [4]: 0.06 µg/mL (≈ 0.13 µM)
Ki (human MAO-B): 2.8 µM
MIC [5]: 0.25 µg/mL (≈ 0.54 µM)
MIC [6]: 0.5 µg/mL (≈ 1.08 µM)
MIC [7]: 0.5 µg/mL (≈ 1.08 µM)

O=C1O[C@@H](CNC(=S)c2ccco2)CN1c1ccc(N2CCSCC2)c(F)c1 [Example 9, N-[[(5S)-3-[3-fluoro-4-(4-thiomorpholinyl)-phenyl]-2-oxo-5-oxazolidinyl]methyl]furan-2-yl-thioamide]
MIC [1]: 4 µg/mL (≈ 9.49 µM)
MIC [2]: 2 µg/mL (≈ 4.74 µM)
MIC [3]: 2 µg/mL (≈ 4.74 µM)
Ki (human MAO-A): 47.5 µM
MIC [8]: 4 µg/mL (≈ 9.49 µM)
MIC [4]: 2 µg/mL (≈ 4.74 µM)
Ki (human MAO-B): 1 µM
MIC [6]: 4 µg/mL (≈ 9.49 µM)
MIC [7]: 8 µg/mL (≈ 19 µM)

O=C1O[C@@H](CNC(=S)c2ccoc2)CN1c1ccc(N2CCSCC2)c(F)c1 [Example 11, N-[[(5S)-3-[3-fluoro-4-(4-thiomorpholinyl)-phenyl]-2-oxo-5-oxazolidinyl]methyl]furan-3-yl-thioamide]
MIC [1]: 1 µg/mL (≈ 2.37 µM)
MIC [2]: 1 µg/mL (≈ 2.37 µM)
MIC [3]: 2 µg/mL (≈ 4.74 µM)
Ki (human MAO-A): ≥ 250 µM
MIC [8]: 1 µg/mL (≈ 2.37 µM)
MIC [4]: 1 µg/mL (≈ 2.37 µM)
Ki (human MAO-B): 0.6 µM
MIC [5]: 4 µg/mL (≈ 9.49 µM)
MIC [6]: 1 µg/mL (≈ 2.37 µM)
MIC [7]: 1 µg/mL (≈ 2.37 µM)

CC(=O)NC[C@H]1CN(c2ccc(N3CCOCC3)c(F)c2)C(=O)O1 [Linezolid, N-[[(5S)-3-[3-Fluoro-4-(4-morpholinyl)phenyl]-2-oxo-5-oxazolidinyl]methyl]acetamide, reference compound]
MIC [1]: 2 µg/mL (≈ 5.93 µM)
MIC [2]: 0.5 µg/mL (≈ 1.48 µM)
MIC [3]: 2 µg/mL (≈ 5.93 µM)
MICs [9]: 2 to 8 µg/mL
Ki (human MAO-A): 7 µM
MIC [8]: 1 µg/mL (≈ 2.96 µM)
MIC [4]: 0.5 µg/mL (≈ 1.48 µM)
Ki (human MAO-B): 0.48 µM
MIC [5]: 2 µg/mL (≈ 5.93 µM)
MIC [6]: 1 µg/mL (≈ 2.96 µM)
MIC [7]: 1 µg/mL (≈ 2.96 µM)
